Common to all, as to format: biochemical
Assay [1] has as its target T1, DPIV (N-terminal Xaa-Pro releasing activity) in human plasma (Homo sapiens, UniProt P27487).
T1 construct: Human plasma contains N-terminal Xaa-Pro releasing activity; from tissue; host or cells: human plasma
In words: Ki-determination in human plasma. The protocol:
Human plasma contains N-terminal Xaa-Pro releasing activity. 70 μL glutaminyl pyrrolidine or glutaminyl thiazolidine in an concentration range of 1*10^−5 M -1*10^−7 M (glutaminyl pyrrolidine) and 1*10^−6 M-1*10^−8 M (glutaminyl thiazolidine) respectively were admixed with 50 μL glycylprolyl-4-nitroaniline in different concentrations (0.4 mM, 0.2 mM, 0.1 mM, 0,05 mM) and 100 μl HEPES (40 mM, pH7.6). The assay mixture was pre-incubated at 30 ° C. for 5 min and 22 hours respectively. After pre-incubation, 50 μL human plasma were added and measurement of yellow color development due to 4-nitroaniline release was performed at 30° C. and λ=405 nm for 10 min using a plate reader ([HTS7000 plus, Applied Biosystems, Weiterstadt, Germany). The Ki-values were calculated using Graphit 4.0.15 (Erithacus Software, Ltd, UK) based on a competitive inhibition of DPIV by glutaminyl pyrrolidine or glutaminyl thiazolidine.

Assay [2] has as its target T2, Prolidase from porcine kidney (Sus scrofa, UniProt A0A5G2QQV1).
T2 construct: Prolidase from porcine kidney (ICN Biomedicals, Eschwege, Germany); purchased ICN Biomedicals, Eschwege, Germany; host or cells: porcine kidney
T2 sequence (A0A5G2QQV1 1-463): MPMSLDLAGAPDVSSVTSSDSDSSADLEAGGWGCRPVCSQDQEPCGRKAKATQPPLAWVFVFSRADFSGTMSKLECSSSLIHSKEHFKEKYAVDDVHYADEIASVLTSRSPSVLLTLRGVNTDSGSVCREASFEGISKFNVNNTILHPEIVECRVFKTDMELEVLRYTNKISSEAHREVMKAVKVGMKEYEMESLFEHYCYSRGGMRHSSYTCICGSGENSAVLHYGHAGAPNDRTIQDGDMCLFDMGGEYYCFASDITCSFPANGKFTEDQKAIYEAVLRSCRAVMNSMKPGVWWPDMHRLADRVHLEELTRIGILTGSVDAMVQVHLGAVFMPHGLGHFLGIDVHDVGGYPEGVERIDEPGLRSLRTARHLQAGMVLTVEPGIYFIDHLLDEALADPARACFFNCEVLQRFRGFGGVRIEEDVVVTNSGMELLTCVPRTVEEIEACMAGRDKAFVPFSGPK
In words: Cross reacting enzymes: prolidase. Particulars: substrate Ile-Pro-OH. The protocol:
Glutaminyl pyrrolidine or glutaminyl thiazolidine were tested for their cross reacting potency against dipeptidyl peptidase I, prolyl oligopeptidase and prolidase.
Prolidase (EC 3.4.13.9) was first described by Bergmann & Fruton (Bergmann, M. & Fruton, J. S., 1937, J Biol. Chem. 189-202). Prolidase releases the N-terminal amino acid from Xaa-Pro dipeptides and has a pH optimum between 6 and 9. Prolidase from porcine kidney (ICN Biomedicals, Eschwege, Germany). was solved (1 mg/mL) in assay buffer (20 mM NH4(CH3COO)2, 3 mM MnCl2, pH 7.6). In order to get a fully active enzyme the solution was incubated for 60 min at room temperature. 450 μL glutaminyl pyrrolidine or glutaminyl thiazolidine in an concentration range of 5*10^−3 M-5*10^−7 M were admixed with 500 μL buffer solution (20 mM NH4(CH3COO)2, pH 7.6) and 250 μL Ile-Pro-OH (0.5 mM in the assay mixture). The assay mixture was pre-incubated at 30° C. for 5 min After pre-incubation, 75 μL Prolidase (1:10 diluted in assay buffer) were added and measurement was performed at 30° C. and λ=220 nm for 20 min using a UV/Vis photometer, UVW (Thermo Spectronic, Cambridge, UK). The IC50-values were calculated using Graphit 4.0.15 (Erithacus Software, Ltd., UK).

Assay [3] deals with T3, porcine DP II (Sus scrofa, UniProt A0A5G2QK18).
T3 construct: The enzyme used was purified from porcine kidney; from tissue; host or cells: porcine kidney
In words: Inhibition of DP IV-like enzymes: dipeptidyl peptidase II. The note with it: substrate lysylalanylaminomethylcoumarine, pH 7.6, 30 °C. On the procedure:
DP II (3.4.14.2) releases N-terminal dipeptides from oligopeptides if the N-terminus is not protonated (McDonald, J. K., Ellis, S. & Reilly, T. J., 1966, J Biol. Chem., 241, 1494-1501). Pro and Ala in P1-position are preferred residues. The enzyme activity is described as DPIV-like activity, but DP II has an acidic pH-optimum. The enzyme used was purified from porcine kidney. 100 μL glutaminyl pyrrolidine or glutaminyl thiazolidine in an concentration range of 1*10^−4M-5*10^−8M were admixed with 100 μL buffer solution (40 mM HEPES, pH 7.6, 0.015% Brij, 1 mM DTT), 50 μL lysylalanylaminomethylcoumarine solution (5 mM) and 20 μl porcine DP II (250 fold diluted in buffer solution). Fluorescence measurement was performed at 30° C. and λexiatation=380 nm, λemission=465 nm for 25 min using a plate reader (HTS7000 plus, Applied Biosystems, Weiterstadt, Germany).

T1 sequence (P27487 39-766 limits assumed): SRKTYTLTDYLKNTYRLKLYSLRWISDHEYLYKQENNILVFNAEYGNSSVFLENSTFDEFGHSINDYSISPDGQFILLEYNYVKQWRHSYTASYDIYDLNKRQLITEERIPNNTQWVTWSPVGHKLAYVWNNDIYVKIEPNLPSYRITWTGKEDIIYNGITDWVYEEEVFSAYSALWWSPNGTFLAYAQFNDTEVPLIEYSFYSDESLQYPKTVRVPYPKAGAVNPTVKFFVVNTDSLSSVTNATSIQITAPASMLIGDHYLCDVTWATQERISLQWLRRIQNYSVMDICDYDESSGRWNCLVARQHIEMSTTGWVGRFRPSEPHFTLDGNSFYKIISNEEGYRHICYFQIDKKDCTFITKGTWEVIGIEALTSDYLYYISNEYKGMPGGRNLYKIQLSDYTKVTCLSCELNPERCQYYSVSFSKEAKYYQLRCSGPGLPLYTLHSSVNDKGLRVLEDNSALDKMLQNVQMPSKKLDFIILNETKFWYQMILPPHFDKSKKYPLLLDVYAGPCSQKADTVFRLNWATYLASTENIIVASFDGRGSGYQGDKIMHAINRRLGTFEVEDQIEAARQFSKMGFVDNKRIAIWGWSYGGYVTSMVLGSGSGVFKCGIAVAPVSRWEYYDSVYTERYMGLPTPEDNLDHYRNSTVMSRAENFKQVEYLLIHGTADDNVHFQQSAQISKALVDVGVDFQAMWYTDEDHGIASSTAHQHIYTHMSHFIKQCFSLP
T3 sequence (A0A5G2QK18 28-502): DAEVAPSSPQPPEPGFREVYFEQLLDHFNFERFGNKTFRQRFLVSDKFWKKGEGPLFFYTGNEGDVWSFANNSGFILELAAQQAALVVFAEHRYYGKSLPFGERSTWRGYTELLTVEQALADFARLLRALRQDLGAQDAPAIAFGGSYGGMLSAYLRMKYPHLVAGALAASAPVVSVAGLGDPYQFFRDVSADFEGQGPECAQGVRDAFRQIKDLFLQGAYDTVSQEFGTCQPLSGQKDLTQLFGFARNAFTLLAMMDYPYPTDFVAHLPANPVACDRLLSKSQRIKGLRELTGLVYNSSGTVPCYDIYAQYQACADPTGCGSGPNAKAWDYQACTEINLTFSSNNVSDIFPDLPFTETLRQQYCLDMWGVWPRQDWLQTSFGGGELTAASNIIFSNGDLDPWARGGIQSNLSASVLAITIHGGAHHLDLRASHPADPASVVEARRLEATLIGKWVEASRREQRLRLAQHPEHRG

`NC(=O)CC[C@H](N)C(=O)N1CCCC1` [glutaminyl pyrrolidine]: the Ki in assay [1] (after 5 min pre-incubation) is 1.3 µM; in assay [1] (after 22 hours pre-incubation), 1.36 µM; in assay [3] it was 85.2 µM. The compound also came in with an IC50 in assay [2] of 340 µM.

Take `NC(=O)CC[C@H](N)C(=O)N1CCSC1` [glutaminyl thiazolidine]: the Ki was 0.403 µM in assay [1] (after 5 min pre-incubation), 0.513 µM in assay [1] (after 22 hours pre-incubation) and 10.7 µM in assay [3]. The same compound showed an IC50 in assay [2] of over 3000 µM.

These data come from US20060287251A1, “Combination therapy for glycaemic control” (priority 2003, published 2006).
